The structures appear in SMILES notation. Like-named read-outs stand apart in the source and are kept apart here.

This is an account of results in patent publication US8299302B2 (priority 2007, dated 2012).

One series concerns Podosphaera leucotricha. The series can be described thus: Podosphaera test (apple) / protective. To be noted: 240 h, read-out: efficacy. It is filed as in vivo. The procedure:
(§1) To produce a suitable preparation of active compound, 1 part by weight of active compound is mixed with the stated amounts of solvent and emulsifier, and the concentrate is diluted with water to the desired concentration.
To test for protective activity, young plants are sprayed with the active compound preparation at the stated application rate. After the spray coating has dried on, the plants are inoculated with an aqueous spore suspension of the apple mildew pathogen Podosphaera leucotricha. The plants are then placed in a greenhouse at about 23° C. and a relative atmospheric humidity of about 70%.
(§2) Evaluation is carried out 10 days after the inoculation. 0% means an efficacy which corresponds to that of the control, whereas an efficacy of 100% means that no infection is observed.

The next series relates to Botrytis cinerea. The series can be described thus: Botrytis test (bean) / protective. Format: in vivo. Conditions: 48 h, read-out: efficacy. The protocol:
as §1
To test for protective activity, young plants are sprayed with the active compound preparation at the stated application rate. After the spray coating has dried on, 2 small pieces of agar overgrown with Botrytis cinerea are placed on each leaf. The inoculated plants are then placed in a darkened chamber at about 20° C. and 100% relative atmospheric humidity.
Two days after the inoculation the size of the infected spots on the leaves is evaluated. 0% means an efficacy which corresponds to that of the control, whereas an efficacy of 100% means that no infection is observed.

For another series, the system named is Puccinia recondita. Description: Puccinia test (wheat) / protective. It is filed as in vivo. Conditions: 240 h, read-out: efficacy. The procedure:
as §1
To test for protective activity, young plants are sprayed with the active compound preparation at the stated application rate. After the spray coating has dried on, the plants are sprayed with a conidia suspension of Puccinia recondita. The plants remain in an incubation cabin at 20° C. and 100% relative atmospheric humidity for 48 hours.
The plants are then placed in a greenhouse at a temperature of about 20° C. and a relative atmospheric humidity of 80% to promote the development of rust pustules.
as §2

In another series the test system is Uromyces appendiculatus. The series can be described thus: Uromyces test (bean) / protective. It is filed as in vivo. Conditions: 240 h, read-out: efficacy. The procedure:
as §1
To test for protective activity, young plants are sprayed with the active compound preparation at the stated application rate. After the spray coating has dried on, the plants are inoculated with an aqueous spore suspension of the bean rust pathogen Uromyces appendiculatus and then remain in an incubation cabin at about 20° C. and 100% relative atmospheric humidity for 1 day.
The plants are then placed in a greenhouse at about 21° C. and a relative atmospheric humidity of about 90%.
as §2

The subject of the next series is Sphaerotheca fuliginea. Description: Sphaerotheca test (cucumber) / protective. Format: in vivo. Conditions: Podosphaera fuliginea, 168 h, read-out: efficacy. The protocol: as §1
To test for protective activity, young plants are sprayed with the active compound preparation at the stated application rate. After the spray coating has dried, the plants are inoculated with an aqueous spore suspension of Sphaerotheca fuliginea. The plants are then placed in a greenhouse at about 23° C. and a relative atmospheric humidity of about 70%.
Evaluation is carried out 7 days after the inoculation. 0% means an efficacy which corresponds to that of the control, whereas an efficacy of 100% means that no infection is observed.

[1] abbreviates: apple plants, protective spray, active compound concentration 100 ppm, evaluation 10 days after inoculation.
Where [2] appears, read: bean plants, protective spray, active compound concentration 250 ppm, evaluation two days after inoculation.
The mark [3] stands for this setting: wheat plants, protective spray, active compound concentration 1000 ppm, evaluation 10 days after inoculation.
Where [4] appears, read: bean plants, protective spray, active compound concentration 10 ppm, evaluation 10 days after inoculation.
The mark [5] stands for this setting: cucumber plants, protective spray, active compound concentration 100 ppm, evaluation 7 days after inoculation.

`CCN(C)C=Nc1cc(C)c(Oc2ccc(-c3ccc(Cl)cc3)cc2)cc1C` [Compound 1, N′-{4-[(4′-chlorobiphenyl-4-yl)oxy]-2,5-dimethylphenyl}-N-ethyl-N-methylimidoformamide]: the pest or weed control at 100 ppm in the series on Podosphaera leucotricha (setting [1]) and in the series on Sphaerotheca fuliginea (setting [5]) was ≥ 70% throughout. In the series with Botrytis cinerea (setting [2]), the pest or weed control at 250 ppm was ≥ 70%. In the series “logP (acidic, pH 2.3)” (pH 2.3, logP acidic, acidic), the logP came out at 2.95. For the same compound, the pest or weed control at 1000 ppm in the series with Puccinia recondita (setting [3]) is ≥ 70%. Also, the pest or weed control at 10 ppm with Uromyces appendiculatus (setting [4]) is ≥ 70%.
With `CCN(C)C=Nc1cc(C)c(Oc2ccc(-c3ccc(OC)cc3)cc2)cc1C` [Compound 5, N-ethyl-N′-{4-[(4′-methoxybiphenyl-4-yl)oxy]-2,5-dimethylphenyl}-N-methylimidoformamide], the pest or weed control at 100 ppm with Podosphaera leucotricha (setting [1]) and in the series on Sphaerotheca fuliginea (setting [5]) was ≥ 70% each time. Further, the pest or weed control at 250 ppm with Botrytis cinerea (setting [2]) was ≥ 70%. The logP in “logP (acidic, pH 2.3)” (pH 2.3, log P (pH 2.3), pH 2.3) was 2.57; in “logP (acidic, pH 2.3)” (pH 2.3, logP acidic, acidic), 2.47. Also, in the series on Puccinia recondita (setting [3]), the pest or weed control at 1000 ppm was ≥ 70%. Also, in the series with Uromyces appendiculatus (setting [4]), the pest or weed control at 10 ppm is ≥ 70%.
Consider `CCN(C)C=Nc1cc(C)c(Oc2ccc(-c3ccc(SC)cc3)cc2)cc1C` [Compound 6, N′-(2,5-dimethyl-4-{[4′-(methylthio)biphenyl-4-yl]oxy}phenyl)-N-ethyl-N-methylimidoformamide], for which the pest or weed control at 100 ppm in the series on Podosphaera leucotricha (setting [1]) and in the series with Sphaerotheca fuliginea (setting [5]) was ≥ 70% throughout. In addition, the pest or weed control at 250 ppm in the series on Botrytis cinerea (setting [2]) is ≥ 70%. The same compound came in with a logP in the series “logP (acidic, pH 2.3)” (pH 2.3, logP acidic, acidic) of 2.67. Moreover, the pest or weed control at 1000 ppm with Puccinia recondita (setting [3]) was ≥ 70%. In the series with Uromyces appendiculatus (setting [4]), the pest or weed control at 10 ppm is ≥ 70%.
As for `CCN(C)C=Nc1cc(C)c(Oc2ccc(-c3ccc(F)cc3)cc2)cc1C` [Compound 11], the pest or weed control at 100 ppm in the series with Podosphaera leucotricha and in the series with Sphaerotheca fuliginea was ≥ 70% in each case. For the same compound, the pest or weed control at 250 ppm in the series with Botrytis cinerea was ≥ 70%. The same compound had a logP in “logP (acidic, pH 2.3)” (pH 2.3) of 2.69. Besides, the pest or weed control at 1000 ppm in the series with Puccinia recondita was ≥ 70%. For the same compound, in the series with Uromyces appendiculatus, the pest or weed control at 10 ppm was ≥ 70%.
With `CCc1ccccc1-c1ccc(Oc2cc(C)c(N=CN(C)CC)cc2C)cc1` [Compound 13], the pest or weed control at 100 ppm with Podosphaera leucotricha and with Sphaerotheca fuliginea was ≥ 70% each time. Also, the pest or weed control at 250 ppm with Botrytis cinerea is ≥ 70%. In the series “logP (acidic, pH 2.3)” (pH 2.3), this compound yielded a log partition coefficient (logP) of 2.89. Moreover, in the series with Puccinia recondita, the pest or weed control at 1000 ppm is ≥ 70%. Moreover, in the series on Uromyces appendiculatus, the pest or weed control at 10 ppm is ≥ 70%.
Turning to `CCN(C)C=Nc1cc(C)c(Oc2ccc(-c3ccccc3C)cc2)cc1C` [Compound 16], the pest or weed control at 100 ppm in the series on Podosphaera leucotricha and with Sphaerotheca fuliginea was ≥ 70% throughout. Moreover, the pest or weed control at 250 ppm in the series on Botrytis cinerea was ≥ 70%. In addition, the logP in the series “logP (acidic, pH 2.3)” (pH 2.3) was found to be 2.75. Besides, the pest or weed control at 1000 ppm in the series with Puccinia recondita was ≥ 70%. The pest or weed control at 10 ppm in the series with Uromyces appendiculatus is ≥ 70%.
As for `CCN(C)C=Nc1cc(C)c(Oc2ccc(-c3ccccc3F)cc2)cc1C` [Compound 17], the pest or weed control at 100 ppm in the series on Podosphaera leucotricha and in the series with Sphaerotheca fuliginea was ≥ 70% each time. In addition, in the series with Botrytis cinerea, the pest or weed control at 250 ppm was ≥ 70%. For the same compound, in the series “logP (acidic, pH 2.3)” (pH 2.3), the logP is 2.56. Moreover, the pest or weed control at 1000 ppm in the series on Puccinia recondita was ≥ 70%. Further, the pest or weed control at 10 ppm with Uromyces appendiculatus is ≥ 70%.
For `CCN(C)C=Nc1cc(C)c(Oc2ccc(-c3ccccc3C(C)=O)cc2)cc1C` [Compound 18], the pest or weed control at 100 ppm with Podosphaera leucotricha and in the series with Sphaerotheca fuliginea was ≥ 70% in each case. In the series on Botrytis cinerea, the pest or weed control at 250 ppm was ≥ 70%. In “logP (acidic, pH 2.3)” (pH 2.3), the log partition coefficient (logP) turned out to be 2.29. The pest or weed control at 1000 ppm with Puccinia recondita was ≥ 70%. The pest or weed control at 10 ppm with Uromyces appendiculatus was ≥ 70%.
Regarding `Cc1cc(Oc2ccc(C3CCCC3)cc2)c(C)cc1/N=C/N1CCCCC1` [Compound 35, 4-(4-cyclopentylphenoxy)-2,5-dimethyl-N-[(1E)-piperidin-1-ylmethylene]aniline], in the series on Botrytis cinerea (setting [2]), the pest or weed control at 250 ppm is ≥ 70%. Besides, the logP in “logP (acidic, pH 2.3)” (pH 2.3, logP acidic, acidic) was found to be 3.13. Besides, the pest or weed control at 1000 ppm in the series with Puccinia recondita (setting [3]) is ≥ 70%. For the same compound, the pest or weed control at 10 ppm in the series with Uromyces appendiculatus (setting [4]) was ≥ 70%. In addition, the pest or weed control at 100 ppm in the series on Sphaerotheca fuliginea (setting [5]) is ≥ 70%.

Usually logP stands for a log measure of how a compound divides between an organic and an aqueous phase. Low readings indicate lower lipophilicity, high ones higher lipophilicity.
